The experiment deals with T1, MAP3K14 (NIK) (Homo sapiens, UniProt Q99558).
T1 construct: purchased Thermo Fisher Scientific (Life Technologies) SelectScreen
Briefly: SelectScreen LanthaScreen. In kind it is binding. The following applies: read-out: % displacement. In outline: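 NU5455 was profiled across the SelectScreen Broad panel of kinase activity and binding assays. Z'LYTE reactions such as CSF1R ran at apparent Km ATP, while the Adapta CAMK1 assay used ATP listed as 10. Values are given as percent.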
(In TR-FRET formats the signal depends on donor and acceptor labels being close together.)

T1 sequence (Q99558 whole entry): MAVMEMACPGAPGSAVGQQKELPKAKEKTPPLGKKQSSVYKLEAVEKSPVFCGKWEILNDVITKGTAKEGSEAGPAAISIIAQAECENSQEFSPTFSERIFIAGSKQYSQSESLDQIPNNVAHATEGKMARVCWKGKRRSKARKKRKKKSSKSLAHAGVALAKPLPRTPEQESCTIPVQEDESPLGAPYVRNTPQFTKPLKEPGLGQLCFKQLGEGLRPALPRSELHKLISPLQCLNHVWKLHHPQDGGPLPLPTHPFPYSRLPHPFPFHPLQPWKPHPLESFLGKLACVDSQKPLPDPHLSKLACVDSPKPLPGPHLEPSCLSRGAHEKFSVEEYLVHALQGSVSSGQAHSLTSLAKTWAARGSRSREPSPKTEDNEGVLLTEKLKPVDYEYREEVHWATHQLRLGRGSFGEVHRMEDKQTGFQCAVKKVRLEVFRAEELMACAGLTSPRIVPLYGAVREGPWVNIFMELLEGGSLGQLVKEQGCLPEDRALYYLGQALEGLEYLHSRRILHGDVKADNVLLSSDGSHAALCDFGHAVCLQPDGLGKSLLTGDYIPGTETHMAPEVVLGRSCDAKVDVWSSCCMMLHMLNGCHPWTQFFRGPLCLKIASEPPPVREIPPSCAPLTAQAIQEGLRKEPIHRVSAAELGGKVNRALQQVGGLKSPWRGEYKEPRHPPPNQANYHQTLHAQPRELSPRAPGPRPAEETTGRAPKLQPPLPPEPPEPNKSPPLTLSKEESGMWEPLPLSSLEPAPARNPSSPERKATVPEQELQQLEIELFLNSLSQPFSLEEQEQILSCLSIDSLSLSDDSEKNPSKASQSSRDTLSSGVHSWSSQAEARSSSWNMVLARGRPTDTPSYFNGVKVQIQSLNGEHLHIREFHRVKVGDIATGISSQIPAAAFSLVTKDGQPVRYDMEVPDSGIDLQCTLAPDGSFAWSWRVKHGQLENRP

Regarding `CN(C(=O)CN1CCOCC1)c1ccc2sc3c(-c4cccc5c(=O)cc(N6CC7CCC(C6)O7)oc45)cccc3c2c1` [NU5455], the inhibition at 1 µM was -0.5%.

Values taken from paper PMC6934184, “Selective DNA-PKcs inhibition extends the therapeutic index of localized radiotherapy and chemotherapy” (The Journal of Clinical Investigation, 2019).
